# Data from patent US20020025929A1, “METHOD OF BUILDING AND MAINTAINING BONE” (priority 1997, published 2002).
# Tested on: ovariectomized rats
# Assay: Uterine wet weight of ovariectomized rats
# Type: in vivo, Sprague-Dawley female rats
# Settings: OVX rats; compound 1a 0.003-3 mg/kg; 17α-ethynyl estradiol 0.1 mg/kg
# Procedure: Following treatment with the test compounds, the rats were anesthetized and subjected to cardiac puncture and euthanized by CO2 inhalation. Uteri were removed and wet weight were determined on a Mettler balance to evaluate ovariectomy and efficacy of treatment with estrogen. Blood samples were allowed to clot at 4° C. for 2 hr before centrifugation at 2,000 g for 10 min. Serum were collected and stored at −70° C. before analysis. Serum cholesterol was assayed using a high performance calorimetric assay (Boehringer Mannheim Biochemicals, Indianapolis, Ind.). Tibia and femora were removed, cleaned of soft-tissue, fixed in 50% ethanol/ saline, and stored at 4° C. Vertebra L1-6 were removed and analyzed by QCT, histomorphometry, and biomechanics.
# In the first study, six-month old virgin Sprague-Dawley female rats weighing about 300 g each were maintained on a 12 hr light/12 hr dark cycle at 22° C. with ad lib access to food (TD 89222 diet containing 0.5% calcium and 0.4% phosphorus, Teklad, Madison, Wis., USA), Except for sham-operated control animals, bilateral ovariectomies were performed on the test animals. In the case of the sham-operated animals, the surgical ovariectomization technique was followed, but the ovaries were left intact to provide a control for assessing any effect which might be due to the surgical trauma. […]
smiles,measurement,value
"C#C[C@]1(O)CC[C@H]2[C@@H]3CCc4cc(O)ccc4[C@H]3CC[C@@]21C [EE2, 17α-ethynyl estradiol]",uterine wet weight,increased uterine weight above OVX to Sham levels
